Converted amounts (≈) assume the structure as drawn.
Conditions: buffer; pH 7.4; 200.0 µM

Structure (SMILES) | solubility kinetic [µg/mL]
Cn1cnc([N+](=O)[O-])c1Sc1ccc(C(C)(C)C)cc1 | 6.1 (≈ 20.9 µM)
COc1ccc(CNC(=O)CSc2cccc3cccnc23)cc1 | > 50.8
CCN1C(=O)CSC1=Nc1ccc(C(=O)O)cc1 | 39 (≈ 148 µM)
CCCNC(=O)COc1ncnc2sccc12 | > 37.7
Cc1ccccc1OCCn1c(=S)[nH]c2ccccc21 | 0.5 (≈ 1.76 µM)
O=C(COc1ccccc1)Nc1ccc(Cl)cn1 | 12.7 (≈ 48.3 µM)
Cc1cccc(C(=O)NCC(=O)OCC(=O)c2ccc(Br)s2)c1 | > 59.4
O=C(COc1cccc(Cl)c1)NCc1ccccc1 | > 41.4
CC(C(=O)Nc1ccccn1)c1ccccc1 (configuration not stated) | > 33.9
Cc1ccc(C)c(NC(=S)NCCc2c[nH]c3ccccc23)c1 | 17.1 (≈ 52.9 µM)
CCc1cccc(OCC(=O)Nc2c[nH]c(=O)[nH]c2=O)c1 | 0.9 (≈ 3.11 µM)
Cc1ccc(C(=O)Nc2ccccc2Oc2ccccc2)o1 | 12.5 (≈ 42.6 µM)
Cc1cc(C)c(NS(=O)(=O)c2c(C)noc2C)c(C)c1 | 33.3 (≈ 113 µM)
N#Cc1cncc(C#Cc2ccccc2)c1 | 5.6 (≈ 27.4 µM)
Cc1cc(C)nc(Sc2ncnc(N)c2[N+](=O)[O-])n1 | > 41.7
CC(C)(C)C(=O)Nc1cc2c3c(c1)CCC(=O)N3CCC2 | 40 (≈ 140 µM)
CCOc1ccc2c(c1)c(C(C)=O)c(C)n2Cc1ccco1 | < 0.6
N#Cc1cccc(Nc2c3c(nc4ccccc24)CCC3)c1 | 8.4 (≈ 29.4 µM)
CC(=O)c1ccc(NC(=O)Nc2ccc3c(c2)nc(C)n3C)cc1 | 4.1 (≈ 12.7 µM)
O=C(NCCN1CCOCC1)c1cc(-c2ccccc2Cl)on1 | > 50.4
CCn1cnc2cc([N+](=O)[O-])ccc21 | > 28.7
Cc1ccc2oc(=O)n(CCOc3ccccc3C)c2c1 | < 0.6

Structure (SMILES) | solubility kinetic [µg/mL]
O=C(Cc1ccccc1[N+](=O)[O-])NC1CC2CCC1C2 (configuration not stated) | > 41.1
COc1ccc(OC)c(NC(=O)CN2CCc3ccccc3C2)c1 | 14.9 (≈ 45.7 µM)
COc1ccc(C(=O)Nc2ccc(NC(=O)C(C)C)nc2)cc1 | 3.1 (≈ 9.89 µM)
O=C(NN1CCOCC1)c1cccc(Br)c1 | > 42.8
N[C@@H](Cc1ccccc1)C(=O)N1C[C@H]2C[C@@H](C1)c1cccc(=O)n1C2 | 49 (≈ 145 µM)
COc1ccc(CN2CCCN(C)CC2)c(OC)c1C | 26.8 (≈ 96.3 µM)
COc1ccc(NC(=O)Nc2cccc(Cl)c2Cl)c(OC)n1 | < 0.2
CC1CC(C)CN(C(=O)COC(=O)COc2ccccc2C#N)C1 (configuration not stated) | > 49.6
COc1ccccc1CC(=O)N1CCN(c2ccccc2)CC1 | > 46.6
COCC(=O)Nc1ccc(N2CCOCC2)c(S(=O)(=O)Nc2ccccc2OC)c1 | > 65.3
O=c1cc(C(O)C[N+](=O)[O-])occ1OCc1ccccc1 (configuration not stated) | 41.6 (≈ 143 µM)
N#Cc1sc2nccc(Nc3ccccc3)c2c1N | < 0.1
CC(=O)Nc1ccc(S(=O)(=O)N2C(C)CCCC2C)cc1 (configuration not stated) | > 46.6
Cc1onc(-c2c(F)cccc2Cl)c1C(=O)Nc1cccc(S(=O)(=O)N2CCOCC2)c1 | 37.8 (≈ 78.8 µM)
COC(=O)c1cn(C(=O)c2ccc(F)cc2)c2ccccc12 | < 0.6
Cc1cc(N)nc(SCC(=O)N2C(C)CCCC2C)n1 (configuration not stated) | 38.3 (≈ 130 µM)
O=c1nc(N2CCCC2)nc(N2CCCC2)[nH]1 | 34.3 (≈ 146 µM)
Cc1ccc(C(=O)NC(=S)NCc2ccccc2)cc1 | < 0.3
O=C1CSC(=S)N1c1cccc(O)c1 | 29 (≈ 129 µM)
COc1cc2ccccc2cc1C(=O)Nc1ccc(N2CCOCC2)cc1 | 0.8 (≈ 2.21 µM)
O=C(NC(=S)Nc1ccc(CN2CCOCC2)cc1)c1ccco1 | > 51.8
Cc1cc(-c2ccccc2)nc(N(C)C)c1S(C)(=O)=O | 25 (≈ 86.1 µM)

Structure (SMILES) | solubility kinetic [µg/mL]
CSCCC(NS(=O)(=O)/C=C/c1ccccc1)C(=O)O (configuration not stated) | > 47.3
Cc1ccc(C(=O)NCc2ccc3c(c2)CCO3)cc1C | 31.2 (≈ 111 µM)
CCCOc1ccc(C(=O)NCCN2CCOCC2)cc1.Cl | > 49.3
COc1ccc(CCNC(=O)c2cccs2)cc1OC | 33.8 (≈ 116 µM)
O=C(Nc1ccc(F)cc1)N1CCN(C(=O)C2CCCO2)CC1 (configuration not stated) | > 48.2
CCCNC(=S)N1CCCC(c2nc3ccccc3[nH]2)C1 (configuration not stated) | 13.4 (≈ 44.3 µM)
CCCOC(=O)Nc1cc(OC)ccc1[N+](=O)[O-] | 5.7 (≈ 22.4 µM)
CC(C)(C)C1CCc2onc(C(=O)O)c2C1 (configuration not stated) | > 33.5
COc1ccc(S(=O)(=O)Nc2cc(C)on2)cc1 | 36.1 (≈ 135 µM)
O=C(NCC1CCCCC1)c1cccc(-c2ccc(O)cc2)c1 | < 0.7
CCc1oc(C(=O)OC)cc1CSC(=N)N.Cl | 41.4
Cc1ccccc1NC(=O)CCOc1ccccc1 | > 38.3
Cc1cc(C)nc(NC(=O)c2ccc(C)o2)n1 | > 34.7
Cc1ccc2cc(NC(=O)CC(CC(=O)O)c3ccccc3)ccc2n1 (configuration not stated) | 47 (≈ 135 µM)
COc1cc(/C=C/C(=O)O)cc(S(=O)(=O)N2CCCc3ccccc32)c1OC | 45.3 (≈ 112 µM)
CC(C)(C)S(=O)(=O)c1cnc(N2CCCC2)nc1N | 37.9 (≈ 133 µM)
CCCCCOc1ccc(C(=O)CCC(=O)NC(C)c2ccc(S(N)(=O)=O)cc2)cc1 (configuration not stated) | 10.9 (≈ 24.4 µM)
Cn1c(=O)n(CCc2ccccc2)c2ccccc21 | 29.2 (≈ 116 µM)
O=C(NC1CCCCC1)c1ccc(-c2ccccc2F)o1 | 5 (≈ 17.4 µM)
Cc1cccc(C)c1NC(=O)COC(=O)c1ccccc1O | 3 (≈ 10 µM)
O=C(NCCN1CCOCC1)C(=O)c1c[nH]c2ccccc12 | > 45.2
COc1ccc(Cl)cc1NC(=S)Nc1ccc(Cl)cn1 | 0.2 (≈ 0.609 µM)

Structure (SMILES) | solubility kinetic [µg/mL]
CCC(Oc1ccc(C)c(C)c1)C(=O)N1CCCN(C)CC1 (configuration not stated) | > 45.7
N#Cc1c(N)nc(Sc2ccc(Cl)cc2)c(C#N)c1-c1ccccc1Cl | < 0.2
CCN(CC)c1nc(-c2ccccc2)nc2ccccc12.Cl | 0.5
Cl.Clc1ccc(-c2ccc(CNCC3CCCO3)o2)cc1 (configuration not stated) | > 49.2
CCCCn1c(N)c(N(CCC(C)C)C(=O)COC(=O)c2ccc([N+](=O)[O-])s2)c(=O)[nH]c1=O | 25.1 (≈ 52.1 µM)
Fc1ccc(N2CCN(c3cnc4ccccc4n3)CC2)cc1 | 1 (≈ 3.24 µM)
CCN(CC)C(=O)CN1C(=O)c2cccc3cccc1c23 | > 42.4
Cc1ccc2[nH]c3c(c2c1)CCCC3NCCO.Cl (configuration not stated) | > 42.1
O=C(/C=C/c1cccs1)c1ccc([N+](=O)[O-])cc1 | 1.9 (≈ 7.33 µM)
O=C(NCc1cccnc1)Nc1ccccc1C(F)(F)F | > 44.3
O=c1[nH]c(/C=C\c2ccccc2F)nc(O)c1[N+](=O)[O-] | > 41.6
Cc1cc(C(=O)Nc2ccccc2Cc2ccccc2)no1 | 2.8 (≈ 9.58 µM)
N#CCC(=O)Nc1ccc(C(=O)OCC(=O)N2CCN(C(=O)c3ccco3)CC2)cc1 | > 63.7
CC(=O)c1ccc(NC(=O)Cc2ccsc2)cc1 | > 38.9
CCc1ccc(Nc2nc(C)cc(C)n2)cc1.Cl | 18.4
CCOC(CNc1ncnc2c1cnn2C)OCC | > 39.8
CN(C)c1ccc(/C=C/c2cccc[n+]2[O-])cc1 | > 36
CC(Sc1nccn1C)C(=O)Nc1ccccc1 (configuration not stated) | > 39.2
CN(C(=O)C1CCCCN1S(=O)(=O)c1ccccc1)c1ccccc1 (configuration not stated) | > 53.8
CCNS(=O)(=O)c1ccc(CCC(=O)N2CCOCC2)cc1 | > 49
CCOC(=O)N1CCN=C1SCc1ccc(C(F)(F)F)cc1 | 13.6 (≈ 40.9 µM)

From PubChem BioAssay AID1996
